Data from patent US20220380378A1 (ESSA Pharma, Inc., priority 2021, published 2022).
pIC50: −log10 of the molar value.

Molecular target: T1, androgen receptor (AR) (Homo sapiens, UniProt P10275, T878A)
T1 sequence (P10275 1-920 T878A): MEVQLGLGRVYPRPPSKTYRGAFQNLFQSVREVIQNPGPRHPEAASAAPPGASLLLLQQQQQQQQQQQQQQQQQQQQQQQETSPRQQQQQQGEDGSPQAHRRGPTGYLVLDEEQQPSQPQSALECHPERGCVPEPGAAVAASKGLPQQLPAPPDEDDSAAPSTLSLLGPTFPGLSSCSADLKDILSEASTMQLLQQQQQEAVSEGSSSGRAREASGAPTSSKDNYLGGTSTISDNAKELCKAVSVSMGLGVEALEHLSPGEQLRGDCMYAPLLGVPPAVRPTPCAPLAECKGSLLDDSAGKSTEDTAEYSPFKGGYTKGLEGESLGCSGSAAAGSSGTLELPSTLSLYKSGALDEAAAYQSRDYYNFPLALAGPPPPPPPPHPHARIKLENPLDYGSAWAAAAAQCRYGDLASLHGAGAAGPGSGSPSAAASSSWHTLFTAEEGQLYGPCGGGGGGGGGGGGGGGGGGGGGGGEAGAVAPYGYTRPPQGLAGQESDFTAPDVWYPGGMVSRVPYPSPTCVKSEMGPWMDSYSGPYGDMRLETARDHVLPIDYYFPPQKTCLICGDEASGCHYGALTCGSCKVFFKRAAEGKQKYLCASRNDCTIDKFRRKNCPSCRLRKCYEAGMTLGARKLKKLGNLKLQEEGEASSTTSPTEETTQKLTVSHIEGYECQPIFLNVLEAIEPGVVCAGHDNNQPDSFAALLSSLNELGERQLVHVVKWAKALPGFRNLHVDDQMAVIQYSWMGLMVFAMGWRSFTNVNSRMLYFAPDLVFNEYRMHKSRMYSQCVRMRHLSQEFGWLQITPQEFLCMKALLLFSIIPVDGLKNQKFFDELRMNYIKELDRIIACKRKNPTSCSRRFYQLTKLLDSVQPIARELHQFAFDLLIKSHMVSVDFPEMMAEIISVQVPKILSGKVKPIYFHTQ
Assay: Androgen-induced PSA (6.1 kb)-luciferase reporter assay in LNCaP cells (R1881 1 nM)
Type: cell-based
Design: endogenous in cells; host or cells: LNCaP
Settings: 24 h, read-out: PSA-Luc IC50 Range
Description: The PSA (6.1 kb)-luciferase reporter contains functional AREs (androgen response elements) to which AR binds in response to androgen to induce luciferase activity. LNCaP cells were transiently transfected with the PSA (6.1 kb)-luciferase reporter for 24 h, and then pretreated with vehicle (DMSO) or indicated concentration of representative compounds for one hour prior to the addition of synthetic androgen, R1881 (1 nM). After 24 h of incubation with R1881, the cells were harvested, and relative luciferase activities were determined (FIG. 1). To determine the IC50, treatments were normalized to vehicle control activity induced by R1881 (Table 2).
Luciferase Assay: Cells were lysed using Passive Lysis Buffer (Promega) and then collected into V-bottom 96-well tissue culture plates. Lysates were centrifuged at 4° C. for 5 minutes at 3000 rpm. To measure luminescence of LNCaP cell lysates the Firefly Luciferase Assay System (Promega) was employed, according to manufacturer's protocol. Relative luminescence units (RLU) in cell lysates were detected for 10 seconds using Promega GloMax-Multi Detection Luminometer (Promega). Values were normalized to protein content. GraphPad Prism graphing software was used to calculate IC50 values.
Statistical analyses were performed using GraphPad Prism (Version 6.01 for Windows; La Jolla, Calif., USA). Comparisons between treatment and control groups were compared using Two-Way ANOVA with post-hoc Dunnett's and Tukey's tests. Differences were considered statistically significant at P values less than 0.05.

Row | SMILES | pIC50
1 | CC(C)(c1ccc(OCc2nccnc2N)cc1)c1cc(Cl)c(OCCCl)c(C#N)c1 [Compound A95] | > 6.30
2 | CC(C)(c1ccc(OCc2ncncc2N)cc1)c1cc(Cl)c(OCCCl)c(C#N)c1 [Compound A98] | 5.70 to 6.30
3 | CC(C)(c1ccc(OCc2cnc(NS(C)(=O)=O)nc2N2CCCCC2)cc1)c1cc(Cl)c(OCCCl)c(C#N)c1 [Compound A99] | 5.70 to 6.30
4 | CCCOc1ncc(C(C)(C)c2ccc(OCc3ccnc(NS(C)(=O)=O)n3)cc2)cc1Cl [Compound A104] | < 5.70
5 | CC(C)(c1ccc(OCc2ccnc(NS(C)(=O)=O)n2)cc1)c1cnc(N2CCCCC2)c(Cl)c1 [Compound A105] | < 5.70
6 | CC(C)(c1ccc(OCc2ccnc(NS(C)(=O)=O)n2)cc1)c1cnc(N2CC3(CCC3)C2)c(Cl)c1 [Compound A106] | < 5.70
7 | CC(C)(c1ccc(-c2ccc3ncncc3c2)cc1)c1cc(Cl)c(OCCCl)c(C#N)c1 [Compound A110] | < 5.70
8 | CC(C)(c1ccc(-c2ccc3c(cnn3S(C)(=O)=O)c2)cc1)c1cc(Cl)c(OCCCl)c(C#N)c1 [Compound A111] | < 5.70
9 | CC(C)(c1ccc(-c2ccn3c(S(C)(=O)=O)c(N)nc3c2)cc1)c1cc(Cl)c(OCCCl)c(C#N)c1 [Compound A112] | < 5.70
10 | CC(C)(c1ccc(OCc2cnc(NS(C)(=O)=O)nc2N2CCNCC2)cc1)c1cc(Cl)c(OCCCl)c(C#N)c1 [Compound A120] | > 6.30
11 | CS(=O)(=O)N1CCN(Cc2ccc3c(ccn3-c3cc(Cl)c(OCCCl)c(C#N)c3)c2)CC1 [Compound A123] | < 5.70
12 | CS(=O)(=O)N1CCN(CCc2ccc3c(ccn3-c3cc(Cl)c(OCCCl)c(C#N)c3)c2)CC1 [Compound A124] | 5.70 to 6.30
13 | CS(=O)(=O)N1CCN(CCc2ccc3c(ccn3-c3cc(Cl)c(OCCCl)c(C#N)c3)c2)C(=O)C1 [Compound A125] | < 5.70
14 | Cn1nc(NC(=O)C(F)(F)F)cc1COc1ccc(C(C)(C)c2cc(Cl)c(OCCCl)c(C#N)c2)cc1 [Compound A127] | 5.70 to 6.30
15 | CS(=O)(=O)NC12CC(C(=O)Nc3ccc4c(ccn4-c4cc(Cl)c(OCCCl)c(C#N)c4)c3)(C1)C2 [Compound A133] | < 5.70
16 | CS(=O)(=O)NC12CC(NC(=O)c3ccc4c(ccn4-c4cc(Cl)c(OCCCl)c(C#N)c4)c3)(C1)C2 [Compound A134] | < 5.70
17 | CS(=O)(=O)N[C@H]1C[C@@H](COc2ccc3c(ccn3-c3cc(Cl)c(OCCCl)c(C#N)c3)c2)C1 [Compound A136] | 5.70 to 6.30

Row | SMILES | pIC50
18 | CS(=O)(=O)N1CC(F)(COc2ccc3c(ccn3-c3cc(Cl)c(OCCCl)c(C#N)c3)c2)C1 [Compound A137] | 5.70 to 6.30
19 | CS(=O)(=O)NC12CC(COc3ccc4c(-c5cc(Cl)c(OCCCl)c(C#N)c5)csc4c3)(C1)C2 [Compound A138] | < 5.70
20 | Cc1cc2cc(OCC34CC(NS(C)(=O)=O)(C3)C4)ccc2n1-c1cc(Cl)c(OCCCl)c(C#N)c1 [Compound A139] | < 5.70
21 | CS(=O)(=O)NC12CC(NCc3ccc4c(ccn4-c4cc(Cl)c(OCCCl)c(C#N)c4)c3)(C1)C2 [Compound A145] | 5.70 to 6.30
22 | CS(=O)(=O)NC12CC(CNc3ccc4c(ccn4-c4cc(Cl)c(OCCCl)c(C#N)c4)c3)(C1)C2 [Compound A146] | 5.70 to 6.30
23 | CC(C)(c1ccc(OCC2CN(S(C)(=O)=O)C2)cc1)c1cc(Cl)c(OCCCl)c(C#N)c1 [Compound A151] | 5.70 to 6.30
24 | CS(=O)(=O)Nc1ncc2c(n1)CN(Cc1ccc3c(ccn3-c3cc(Cl)c(OCCCl)c(C#N)c3)c1)CC2 [Compound A153] | < 5.70
25 | CS(=O)(=O)Nc1ncc2c(n1)CCN(Cc1ccc3c(ccn3-c3cc(Cl)c(OCCCl)c(C#N)c3)c1)C2 [Compound A154] | < 5.70
26 | CS(=O)(=O)N1CC(O)(COc2ccc3c(ccn3-c3cc(Cl)c(OCCCl)c(C#N)c3)c2)C1 [Compound A158] | 5.70 to 6.30
27 | CC(Oc1ccc2c(ccn2-c2cc(Cl)c(OCCCl)c(C#N)c2)c1)C1CN(S(C)(=O)=O)C1 (centres unmarked) [Compound A159] | 5.70 to 6.30
28 | CS(=O)(=O)N1CC2(CC(COc3ccc4c(ccn4-c4cc(Cl)c(OCCCl)c(C#N)c4)c3)C2)C1 [Compound A162] | 5.70 to 6.30
29 | CS(=O)(=O)N1CC2(CC(Oc3ccc4c(ccn4-c4cc(Cl)c(OCCCl)c(C#N)c4)c3)C2)C1 [Compound A163] | 5.70 to 6.30
30 | CC(C)(c1ccc(OCc2ccnc(NS(C)(=O)=O)n2)cc1)c1cnc(N2CC3(CCC3)C2)c(C#N)c1 [Compound A166] | < 5.70
31 | CS(=O)(=O)NC12CC(COc3ccc4c(ccn4-c4cc(Cl)c(OCC(F)(F)F)c(C#N)c4)c3)(C1)C2 [Compound A167] | 5.70 to 6.30
32 | CS(=O)(=O)NCC1CN(Cc2ccc3c(ccn3-c3cc(Cl)c(OCCCl)c(C#N)c3)c2)CCO1 (centres unmarked) [Compound A170] | < 5.70
33 | CS(=O)(=O)NC1CC2(C1)CN(Cc1ccc3c(ccn3-c3cc(Cl)c(OCCCl)c(C#N)c3)c1)C2 [Compound A171] | < 5.70

Second part, the compound after the results:

Row | pIC50 | SMILES
34 | > 6.30 | CC(C)(c1ccc(OCc2ccnc(NS(C)(=O)=O)c2N)cc1)c1cc(Cl)c(OCCCl)c(C#N)c1 [Compound A97]
35 | 5.70 to 6.30 | CC(C)(c1ccc(OCc2ccnc(NS(C)(=O)=O)n2)c(Cl)c1)c1cc(Cl)c(OCCCl)c(C#N)c1 [Compound A102]
36 | < 5.70 | CC(C)(c1ccc(OCc2ccnc(NS(C)(=O)=O)n2)cc1)c1cnc(OCCCl)c(Cl)c1 [Compound A103]
37 | < 5.70 | CC(C)(c1ccc(-c2ccc3nc(NS(C)(=O)=O)nnc3c2)cc1)c1cc(Cl)c(OCCCl)c(C#N)c1 [Compound A108]
38 | < 5.70 | CS(=O)(=O)Nc1nccc(COc2ccc3c(ccn3-c3ccn(CCCCl)c(=O)c3)c2)n1 [Compound A115]
39 | 5.70 to 6.30 | CC(C)(c1ccc(Oc2cccc3nc(NS(C)(=O)=O)ncc23)cc1)c1cc(Cl)c(OCCCl)c(C#N)c1 [Compound A117]
40 | < 5.70 | CC(C)(c1ccc(-c2ccc3cnc(NS(C)(=O)=O)nc3c2)cc1)c1cc(Cl)c(OCCCl)c(C#N)c1 [Compound A121]
41 | < 5.70 | CS(=O)(=O)Nc1ncc2cc(-c3ccc4c(ccn4-c4cc(Cl)c(OCCCl)c(C#N)c4)c3)ccc2n1 [Compound A122]
42 | 5.70 to 6.30 | CS(=O)(=O)Nc1nccc(COc2ccc3c(ccn3-c3cc(Cl)c(OC=C(Cl)Cl)c(C#N)c3)c2)n1 [Compound A128]
43 | < 5.70 | CC(c1cc(Cl)c(OCCCl)c(C#N)c1)n1ccc(-c2ccc3nc(NS(C)(=O)=O)ncc3c2)n1 (centres unmarked) [Compound A142]
44 | < 5.70 | CS(=O)(=O)Nc1ncc(Cn2ncc3ccc(-c4cc(Cl)c(OCCCl)c(C#N)c4)cc32)cn1 [Compound A143]
45 | < 5.70 | CS(=O)(=O)Nc1nccc(COc2ccc3cc(-c4cc(Cl)c(OCCCl)c(C#N)c4)ccc3c2)n1 [Compound A148]
46 | < 5.70 | CS(=O)(=O)Nc1ncc2ccc(COc3cccc(-c4cc(Cl)c(OCCCl)c(C#N)c4)c3)cc2n1 [Compound A152]
47 | 5.70 to 6.30 | Cn1cc(-c2cc(Cl)c(OCCCl)c(C#N)c2)c2ccc(OCc3ccnc(NS(C)(=O)=O)n3)cc21 [Compound A157]
48 | < 5.70 | CS(=O)(=O)Nc1ncc(Cn2cc3ccc(-c4cc(Cl)c(OCCCl)c(C#N)c4)cc3n2)cn1 [Compound A160]
49 | < 5.70 | CS(=O)(=O)Nc1ncc(Cn2cc3c(-c4cc(Cl)c(OCCCl)c(C#N)c4)cccc3n2)cn1 [Compound A161]
50 | < 5.70 | CS(=O)(=O)NCc1ccc(-c2ccc3c(ccn3-c3cc(Cl)c(OCCCl)c(C#N)c3)c2)cc1 [Compound A164]
51 | > 6.30 | Cc1cc(-c2ccc3c(ccn3-c3cc(Cl)c(OCCCl)c(C#N)c3)c2)ccc1CNS(C)(=O)=O [Compound A168]
52 | < 5.70 | CCC(O)COc1c(Cl)cc(C(C)(C)c2ccc(OCc3ccnc(NS(C)(=O)=O)n3)cc2)cc1C#N (centres unmarked) [Compound A174]
53 | < 5.70 | CCNc1ncc2cc(-c3ccc(C(C)(C)c4cc(Cl)c(OCCCl)c(C#N)c4)cc3)ccc2n1 [Compound A176]
